{
  "source": "patent US20220218765A1",
  "about": "“ASSISTANT AGENT FOR ASSISTING INTRODUCTION INTO LIVING BODY AND METHOD OF UTILIZING THE SAME” (SHINBIOSIS CORPORATION, priority 2019, published 2022)",
  "test_system": "STZ-induced diabetes model mouse (STZ-mouse)",
  "experiment": "Blood glucose level in STZ-induced diabetes model mouse (Test Example 4-1)",
  "assay_type": "in vivo, CD-1 (ICR) mice",
  "settings": "STZ-mice, Day 14 after the treatment",
  "description": "The “complex containing an active substance” was injected into the intestine of a STZ-induced diabetes model mouse (STZ-mouse) together with the “assistant agent for assisting introduction into a living body”, and then measurement of a “change in plasma glucose (blood glucose level) (Test Example 4-1)” and “measurement of the plasma insulin level (Test Example 4-2)” at the end of the treatment were performed.\n“Compositions containing an active substance” below were prepared by mixing the above-described “active substance complex (Bio3 formulation)” with the respective “assistant agents for assisting introduction into a living body” above, and were then used in the experiments.\nCD-1 (ICR) mice (male, 4 weeks old) purchased from Charles River Japan were preliminarily kept for 1 week before experiment.\nProcedure for Producing Disease Model Mice STZ (40 mg/kg) prepared in a citrate buffer (100 mmol/L, pH 4.5) was intravenously administered (iv) to the tail veins of the above-mentioned mice.\nOne week after, blood was collected from ophthalmic venous plexus of the mice with a capillary, and the mice were divided into the following four groups (six mice per group) based on the measured blood glucose levels such that the average blood glucose levels of the groups were equal to one another as follows. […]",
  "data": [
    {"substance": "insulin", "values": [
      {"measurement": "blood glucose level as ratio to the non-treated control group", "value": "up to 60%"}
    ]}
  ]
}
